# Test results taken from patent US20080039430A1, “Pharmaceutical Compositions For The Treatment Of Leishmaniasis” (priority 2004, published 2008).
# Key:
# SIRT1 = molecular target: T1, SIRT1 (Homo sapiens, UniProt Q96EB6); assay: NAD-dependent deacetylase activity, cyclex SIR2 assay kit with SIRT1; assay type: biochemical
# T1 construct: purchased MBL, Japan
# T1 sequence (Q96EB6 1-747): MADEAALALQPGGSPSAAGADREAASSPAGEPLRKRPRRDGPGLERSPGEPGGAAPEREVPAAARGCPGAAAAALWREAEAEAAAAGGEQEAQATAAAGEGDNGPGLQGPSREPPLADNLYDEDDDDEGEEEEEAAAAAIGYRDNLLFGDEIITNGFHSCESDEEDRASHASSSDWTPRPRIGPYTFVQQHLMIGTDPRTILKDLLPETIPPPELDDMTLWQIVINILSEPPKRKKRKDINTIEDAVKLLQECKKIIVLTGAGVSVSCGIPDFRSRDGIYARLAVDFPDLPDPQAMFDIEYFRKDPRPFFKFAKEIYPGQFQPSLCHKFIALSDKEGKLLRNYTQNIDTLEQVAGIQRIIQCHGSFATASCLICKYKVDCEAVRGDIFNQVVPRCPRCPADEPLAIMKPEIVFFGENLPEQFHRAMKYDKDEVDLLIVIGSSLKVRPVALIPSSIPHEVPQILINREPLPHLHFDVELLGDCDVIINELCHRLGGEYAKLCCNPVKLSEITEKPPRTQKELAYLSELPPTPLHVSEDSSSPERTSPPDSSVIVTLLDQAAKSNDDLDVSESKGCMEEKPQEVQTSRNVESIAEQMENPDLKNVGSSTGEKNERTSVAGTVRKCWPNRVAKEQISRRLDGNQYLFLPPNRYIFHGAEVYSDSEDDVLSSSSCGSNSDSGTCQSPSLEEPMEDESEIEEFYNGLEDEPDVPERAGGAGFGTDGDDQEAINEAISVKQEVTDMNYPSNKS
# Protocol: Therefore, complementary experiments were conducted in order to examine whether NAm could interfere with Leishmania deacetylase activity in vitro. To test this possibility, a commercially available “[…] SIR2 assay kit” and SIRT1 as a standard enzyme (MBL, Japan) were used.
# [1] = tested on: L. infantum promastigotes; assay: Growth of promastigotes in axenic culture, viable parasites by FACs analysis; assay type: cell-based
# Protocol: (§1) The growth of Leishmania amastigotes and promastigotes was followed in axenic culture conditions in the presence or absence of NAm.
# (§2) A cloned line of L. infantum (MHOM/MA/67/ITMAP-263) was used in all experiments. Each subculture was initiated at 5×10^5 parasites/ml of medium. Axenically grown amastigote forms of L. infantum were maintained at 37° C. with 5% CO2 by weekly subpassages in a cell-free medium called MAA/20 (medium for axenically grown amastigotes) in 25-ml flasks, as previously described (10). Promastigote forms were maintained at 26° C. by weekly subpassage in SDM 79 medium supplemented with 10% foetal calf serum (FCS) and 100 units/ml penicillin and 100 μg/ml streptomycin. Nicotinamide (SIGMA, St Louis) was added at the appropriate concentration and the mean number of viable parasites determined using FACs analysis, as previously described (11).
# [2] = tested on: L. infantum amastigotes which overexpress LmSIR2; assay: NAm-induced death of amastigotes overexpressing LmSIR2; assay type: cell-based; conditions: FIGS. 3A and 3B, growth inhibition and YOPRO-1 positive cells
# Protocol: To further examine the possible correlation between the level of SIR2 expression and the sensitivity/resistance to NAm-induced Leishmania amastigotes death, NAm was added to cultures of mutant L. infantum amastigotes which overexpress LmSIR2 or carrying the empty pTEX plasmid as controls.
# LmSIR2 = molecular target: T2, LmSIR2 (Leishmania major, UniProt Q25337); assay: NAD-dependent deacetylase activity in Leishmania extracts (pTEX-LmSIR2); assay type: biochemical; conditions: 5 mM NAm, 200 μM NAD
# T2 construct: expressed in transfected cells; host or cells: Leishmania infantum (MHOM/MA/67/ITMAP-263) carrying pTEX-LmSIR2; NP40 lysate
# Protocol: Having established a standard inhibitory assay, the effect of NAm was then examined on the NAD-dependent deacetylase activity contained in Leishmania extracts from mutant parasites carrying extra copies of LmSIR2 gene (pTEX-LmSIR2) or empty plasmid DNA (pTEX) (11).
# Briefly, 2 10^5 parasites were collected and washed two times with PBS 0.01M pH 7.2 and incubated in a lysis solution (100 mM Tris-HCl, 150 mM NaCl, 1 mM EDTA, 1% NP40, 5 μM Trichostatin A, pH 8.8), cells were then centrifuged for 20 min at 10 000 rpm at 4° C. Deacetylase activity in the presence or absence of 200 μM NAD was measured. Results are expressed as relative F355/F460 counts=F355/F460 counts in the presence of NAD—F355/F460 counts in the absence of NAD. This allowed to discriminate between fluorescence due to the action of LmSIR2 to fluorescence due to the presence of compounds which could interfere with the test.
# THP-1 monocytes = assay: Growth and viability of THP-1 monocytes; assay type: cell-based; conditions: 3 days
# Protocol: In a first series of experiments, THP-1 monocytes were incubated during 3 days with various concentrations of NAm and the growth and viability of cells were recorded. Up to 10 mM of NAm, no effect on cell growth and viability was observed. In contrast, 20 mM NAm inhibited the proliferation of THP-1 monocyte by about 45% in agreement with the values recorded for other cell types: SupT1 and PBLs cells (6).
# [3] = tested on: L. infantum axenic amastigotes; assay: Growth of axenically grown amastigotes, viable parasites by FACs analysis; assay type: cell-based
# Protocol: as §1, §2
# axenic amastigote = assay: YOPRO-1 positive (apoptotic) axenic amastigotes; assay type: cell-based, L. infantum
# Protocol: After 24, 48 and 72 hours of incubation aliquots (10^6 parasites) were collected, washed and incubated for 10 min with 10 μM of YO[…], an apoptotic cell marker (Molecular probes). The mean percentage of YO[…] positive cells was determined as previously described (9).
# intracellular amastigote = assay: Intracellular amastigote proliferation in THP-1 differentiated macrophages, parasitic index; assay type: cell-based, Leishmania infantum; conditions: for IC50: Leishmania infantum, THP-1, read-out: IC50, intracellular growth of Leishmania infantum
# Protocol: Thus, THP-1 differentiated macrophages were infected with stationary phase amastigotes at a host cell-parasite ratio of 5:1. After 4 hours, non adherent parasites were removed and nicotinamide was added to the medium at the appropriate concentration. After 3 days of incubation time, cells were fixed with methanol and stained with giemsa. Parasitic index PI (mean percentage of infected macrophages X number of amastigotes per macrophage) was determined. […] At this concentration a reduction of almost 70% of PI was observed.
# [4] = tested on: L. amazonsensis amastigotes; assay: Growth inhibition of L. amazonsensis amastigotes; assay type: cell-based
# [5] = patient treated with accelerated radiotherapy for head and Neck cancer; cited from earlier work
# Leishmania parasites = conditions: compared with NAm
# T2 sequence (Q25337 whole entry): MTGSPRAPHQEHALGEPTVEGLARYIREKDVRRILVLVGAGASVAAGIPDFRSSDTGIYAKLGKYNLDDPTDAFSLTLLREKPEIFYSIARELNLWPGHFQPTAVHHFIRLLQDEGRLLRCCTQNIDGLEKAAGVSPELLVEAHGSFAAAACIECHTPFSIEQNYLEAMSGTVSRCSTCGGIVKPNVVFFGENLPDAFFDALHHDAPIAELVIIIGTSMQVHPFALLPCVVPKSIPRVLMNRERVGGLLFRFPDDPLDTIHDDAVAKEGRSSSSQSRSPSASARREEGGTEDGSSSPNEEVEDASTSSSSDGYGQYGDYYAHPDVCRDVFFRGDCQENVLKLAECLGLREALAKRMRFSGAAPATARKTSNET
Compound,effect on enzymatic (deacetylase) activity of SIRT1 (SIRT1; 5 mM),effect on enzymatic (deacetylase) activity of SIRT1 (SIRT1; 20 mM),growth of promastigotes ([1]; 20 mM NAm),"proliferation of promastigotes ([1]; FIG. 1A, 10 mM or 20 mM NAm)",resistance to NAm-induced death from extra copies of LmSIR2 [2],NAD dependent deacetylase activity in parasites overexpressing LmSIR2 (LmSIR2),"inhibition at 20000 µM (THP-1 monocytes; Homo sapiens, THP-1, 72 h, 20 mM NAm, read-out: inhibition of proliferation of THP-1 monocyte) [%]",effect on cell growth and viability of THP-1 monocytes (THP-1 monocytes; up to 10 mM NAm),capacity of axenic amastigotes to proliferate ([3]; 20 mM NAm),"proliferation of amastigotes ([3]; FIG. 1B, 10 mM or 20 mM NAm)","leishmanicidal effect, YOPRO-1 positive cells (axenic amastigote; 100 mM NAm, after 3 days of culture (FIG. 1C))","leishmanicidal activity, occurrence of YOPRO-1 positive cells (axenic amastigote; concentrations higher than 25 mM, 24, 48 and 72 hours)","inhibition of intracellular amastigote proliferation (intracellular amastigote; 2.5 mM NAm, vs control non treated cultures, p<0.05)","reduction of parasitic index (PI) (intracellular amastigote; 10 mM NAm, 3 days, THP-1 differentiated macrophages (maximal activity)) [%]",IC50 (intracellular amastigote) [µM],growth inhibitory activity on L. amazonsensis amastigotes [4],plasmatic concentration achievable [5] [mM],growth inhibitory activity towards Leishmania parasites (Leishmania parasites)
"NC(=O)c1cccnc1 [NAm, nicotinamide]",almost completely abrogated,almost completely abrogated,a delay in the growth,strongly inhibited,did not confer significant resistance,significantly inhibited,~45,no effect,virtually completely abrogated,strongly inhibited,Maximal effect,strong dose-dependent leishmanicidal activity,significantly inhibit,~70,< 2500,sensitive,0.7 to 2.3,
"O=C(O)c1cccnc1 [NicotAc, nicotinic acid]",no significant effect,,,,,,,,,,,,,,< 2500,,,"exerted a growth inhibitory activity towards Leishmania parasites, although at higher concentrations"
